Data from US6171808A, “Mutant luciferases” (priority 1995, dated 2001).

How the values were obtained:
[1] = biological target: Photinus pyralis luciferase variant 601aK, E354K (thermostable mutant 354 lysine) (Photinus pyralis, UniProt P08659, E354K); settings: read-out: Km value with respect to ATP; 21° C., tricine pH7.8, 470 μM D-luciferin, 6.25 to 400 μM ATP
[2] = biological target: T1, Photinus pyralis luciferase double mutant 601aG1K, E270K + E354K, SEQ ID No 4 (Photinus pyralis, UniProt P08659, E270K/E354K); assay: Km determination with respect to ATP, luminometric luciferase assay; type: biochemical; settings: read-out: Km value with respect to ATP; 21° C., tricine pH7.8, 470 μM D-luciferin, 6.25 to 400 μM ATP
T1 construct: made in house; host or cells: E. coli JM109 (pPW601aG1K, pDR540-derived)
T1 sequence (P08659 whole entry E270K/E354K): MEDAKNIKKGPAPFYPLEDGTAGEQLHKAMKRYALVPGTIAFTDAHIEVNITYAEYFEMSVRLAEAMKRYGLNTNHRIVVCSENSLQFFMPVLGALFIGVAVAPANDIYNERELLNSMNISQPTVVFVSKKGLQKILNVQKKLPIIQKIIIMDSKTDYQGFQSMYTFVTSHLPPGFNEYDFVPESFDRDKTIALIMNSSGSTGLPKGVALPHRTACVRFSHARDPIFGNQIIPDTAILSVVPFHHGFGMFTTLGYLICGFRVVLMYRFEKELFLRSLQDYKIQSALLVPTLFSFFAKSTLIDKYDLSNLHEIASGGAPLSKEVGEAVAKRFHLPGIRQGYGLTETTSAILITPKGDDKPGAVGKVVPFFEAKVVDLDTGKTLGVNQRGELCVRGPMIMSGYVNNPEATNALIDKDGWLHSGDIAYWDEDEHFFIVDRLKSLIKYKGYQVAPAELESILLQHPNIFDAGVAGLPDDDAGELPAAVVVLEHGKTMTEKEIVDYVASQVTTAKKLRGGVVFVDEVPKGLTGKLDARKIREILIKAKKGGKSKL

[3] = biological target: T2, Photinus pyralis luciferase, recombinant wild-type (601a) (Photinus pyralis, UniProt P08659); assay: as above; type: biochemical; settings: 21° C., tricine pH7.8, 470 μM D-luciferin, 6.25 to 400 μM ATP
T2 construct: made in house; host or cells: E. coli JM109 (pPW601a, derived from pDR540 and the luc gene of pGEM-luc)
T2 sequence (P08659 whole entry): as the sequence (P08659 whole entry E270K/E354K) above, with K270E, K354E counted along it

[4] = biological target: T3, Photinus pyralis luciferase variant 601aG1, E270K (270 lysine Km change), SEQ ID No 2 with Xaa = lysine (Photinus pyralis, UniProt P08659, E270K); assay: as above; type: biochemical; settings: read-out: Km value with respect to ATP; 21° C., tricine pH7.8, 470 μM D-luciferin, 6.25 to 400 μM ATP
T3 construct: made in house; host or cells: E. coli BL21 (DE3) (pPW601G1)
T3 sequence (P08659 whole entry E270K): as the sequence (P08659 whole entry E270K/E354K) above, with K354E counted along it
Text: The Km mutant was initially generated by hydroxylamine induced mutagenesis of the luc gene within pPW304 to provide plasmid 304 G1 bearing a single base change in the DNA sequence at 811 of SEQ ID No 1 resulting in an amino acid glutamate change to lysine at position 270. A 1.1 kb DNA fragment (BstE II/Stu I) was cloned from pPW304 and used to replace the corresponding fragment in pP601a to form pPW601G1, thus providing a luc gene encoding for luciferase without the four extra amino acids encoded by pPW304 (M not included from M-A-R-I-Q).

Sequence of Photinus pyralis luciferase variant 601aK, E354K (thermostable mutant 354 lysine) (P08659 whole entry E354K): as the sequence (P08659 whole entry E270K/E354K) above, with K270E counted along it

SMILES: Nc1ncnc2c1ncn2[C@@H]1O[C@H](COP(=O)(O)OP(=O)(O)OP(=O)(O)O)[C@@H](O)[C@H]1O [ATP, adenosine triphosphate]
- Km [1]: 61.3 µM
- Km [2]: 25.2 µM
- Km [3]: 66.1 µM
- Km [4]: 28.7 µM
